Experimental data as given in the Biogen ADME set (Fang et al. 2023).
Converted amounts (≈) assume the structure as drawn. Non-standard residues stand in square brackets, D forms with d. Residues, ends and D or L forms follow the SMILES beside them. *: point of attachment. Fmoc = O=C(OCC1c2ccccc2-c2ccccc21)*; Cha = N[C@@H](CC1CCCCC1)C(=O)O; AMC = Cc1cc(=O)oc2cc(N*)ccc12

Details: for aqueous solubility: pH 6.8

Row | SMILES | MDR1-MDCK efflux ratio | intrinsic clearance, human liver microsomes [mL/min/kg] | intrinsic clearance, rat liver microsomes [mL/min/kg] | aqueous solubility [µg/mL] | fraction unbound, human plasma | fraction unbound, rat plasma
1 | CC1(C)[C@@H]2C[C@H]1[C@@]1(O)[C@@H](C2)Oc2c(ccc(O)c2C(=O)NCCc2ccccn2)[C@@H]1O | – | 555 | 910 | – | – | –
2 | COc1ccc(C(=O)N2CCCC2)cc1NC(=O)c1cc(F)c(F)c(F)c1F | – | ≤ 4.74 | 90.1 | 43.9 (≈ 111 µM) | – | –
3 | Cc1cc(C(=O)O)nn1-c1ccccn1 | – | ≤ 4.74 | ≤ 10.7 | – | – | –
4 | C[C@@H](CN1CCC(n2c(=O)[nH]c3cc(Br)ccc32)CC1)NC(=O)[C@@H]1C[C@H]1c1ccccc1 | – | – | 574 | – | – | –
5 | COc1cc(F)ccc1-c1ncccc1NC(=O)C(C)C | 3.33 | ≤ 4.74 | 25.7 | 34.6 (≈ 120 µM) | – | –
6 | Cc1nnc(CN(C)CC(C)Oc2ccc(Cl)c(Cl)c2)n1C (configuration not stated) | 7.09 | 132 | 1440 | 33 (≈ 96.1 µM) | 0.0844 | 0.13
7 | O=C(COc1ccc(F)cc1F)N1CCNC1=O | – | – | – | 97 (≈ 379 µM) | – | –
8 | O=C(c1ccc2c(c1)OCO2)N1CCC(c2n[nH]c(C3CC3)n2)CC1 | 62.7 | ≤ 4.74 | 44.6 | 27 (≈ 79.4 µM) | – | –
9 | COc1ccc(Nc2nc(Cl)cc(Cl)n2)cc1 | – | 188 | 170 | – | – | –
10 | Cc1nn(C)c(C)c1-c1cc(C(C)(C)C)nc(N2CCN(C)CC2)n1 | 1.81 | 17.5 | 4620 | – | – | –
11 | Cn1cc(C(=O)N2CCC(CC(=O)O)CC2)cn1 | – | ≤ 4.74 | ≤ 10.7 | 57.3 (≈ 228 µM) | – | –
12 | CCc1noc(-c2ccc(CCN)cc2)n1 | 0.479 | 394 | 54.5 | 44.1 (≈ 203 µM) | – | –
13 | Cc1nccc(NC(=O)c2ccc(Cl)nc2Cl)n1 | 0.548 | 5.24 | 15.2 | – | – | –
14 | C#CCNC(=O)CCc1c(C)nn(C)c1C | 7.96 | ≤ 4.74 | ≤ 10.7 | 60.9 (≈ 278 µM) | – | –
15 | CC#CCNc1ccc(-n2cnnn2)c(C)c1 | 0.59 | 21.1 | 131 | 19.4 (≈ 85.4 µM) | – | –
16 | COc1cc(OC)cc(-c2nnc(SCC(=O)Nc3cccc(C(=O)O)c3)s2)c1 | 0.928 | ≤ 4.74 | 48.3 | 39 (≈ 90.4 µM) | – | –

Continued, values first:

Row | MDR1-MDCK efflux ratio | intrinsic clearance, human liver microsomes [mL/min/kg] | intrinsic clearance, rat liver microsomes [mL/min/kg] | aqueous solubility [µg/mL] | fraction unbound, human plasma | fraction unbound, rat plasma | SMILES
17 | 0.847 | 18.5 | 506 | 45 (≈ 137 µM) | – | – | Cc1nn(C)c2nc(N3CCN(C)C[C@@H]3c3ccccc3)sc12
18 | 0.666 | 19.3 | 308 | 20.2 (≈ 65.8 µM) | – | – | Cc1ccc2nc(C)c(C(=O)NOCc3ccccc3)cc2c1
19 | 0.507 | 128 | 2020 | 52.9 (≈ 171 µM) | – | – | N#Cc1cccc(CN2CCOC[C@H](Oc3ccccc3)C2)c1
20 | 1.16 | 24 | 74.9 | – | – | – | Cc1c(C(=O)Nc2ccc(N3C[C@@H](C)O[C@H](C)C3)nc2)cccc1-c1ccc(OC(F)(F)F)cc1
21 | 1.35 | 176 | 1970 | 45 (≈ 118 µM) | 0.0394 | 0.0393 | COc1ccc([C@H]2CN(C(C)=O)[C@@H]3CCCN(Cc4cccc(F)c4)[C@H]23)cc1
22 | 0.527 | 28.1 | 484 | 56.4 (≈ 175 µM) | – | – | CN1CCN(c2ncncc2-c2nc(-c3ccccc3)no2)CC1
23 | 0.126 | 91.8 | 209 | 1.17 (≈ 4.46 µM) | – | – | Cc1cccc(NC(=O)c2ccc3ccccc3c2)n1
24 | 1.11 | ≤ 4.74 | ≤ 10.7 | – | – | – | Cc1cc(=O)oc2cc(NC(=O)[C@H](CCCCN)NC(=O)[C@H](CC3CCCCC3)NC(=O)OCC3c4ccccc4-c4ccccc43)ccc12 (Fmoc-[Cha]-Lys-{AMC})
25 | 2.26 | – | – | 0.81 (≈ 1.84 µM) | – | – | COc1ccccc1-n1cc2c(c1-c1ccccc1Br)c(=O)n(C)c(=O)n2C
26 | 0.387 | 28.5 | 410 | 29.1 (≈ 122 µM) | – | – | Cc1ccc(CNC/C=C/c2ccccc2)cn1
27 | 0.581 | 27.8 | 1280 | 39.7 (≈ 121 µM) | – | – | COc1c(C)cccc1CN1CCC(O)(c2ccc(F)cc2)CC1
28 | 2.9 | ≤ 4.74 | 17.3 | – | – | – | CCOc1c2c(c(OCC)c3ccccc13)C(=O)N(c1ccc(CC(=O)NS(=O)(=O)c3ccccc3)cc1)C2
29 | – | ≤ 4.74 | 63.7 | – | – | – | O=c1oc2cccnc2n1Cc1cnn(-c2ccccc2)n1
30 | 0.421 | 187 | 3610 | 36 (≈ 111 µM) | – | – | Cc1ccc(-c2nc(C(=O)N3CCc4ccccc4C3)cs2)o1
31 | 0.421 | 38.2 | 557 | 29.7 (≈ 119 µM) | – | – | Cc1cccc(C(=O)NCC#Cc2ccccc2)n1
32 | 31.2 | 12.1 | 553 | 44.9 (≈ 113 µM) | – | – | CC(=O)NCCCOc1ccc(CN2C[C@H](Oc3cccc(C)c3)[C@@H](O)C2)cc1
33 | – | – | – | 18 (≈ 45.5 µM) | – | – | COc1cccc(C2NC(=O)NC(C)=C2C(=O)OCc2ccc3c(c2)OCO3)c1 (configuration not stated)
34 | 0.247 | 84.8 | 491 | 4.9 (≈ 18.4 µM) | 0.032 | 0.0373 | COc1ccccc1C(=O)Nc1ccc2cc[nH]c2c1
35 | – | 47.7 | 1310 | – | – | – | Nc1ccccc1-c1nc(C2CCCCCC2)no1
36 | 1.17 | ≤ 4.74 | 42.6 | – | – | – | Cn1cc(-c2cccc3c(C(N)=O)cccc23)cn1
37 | 0.834 | 226 | 2510 | 16.9 (≈ 49.3 µM) | – | – | O=C(NC[C@H]1CCN(c2ccccc2)C1)N1CCc2sccc2C1
38 | – | – | – | 13.1 (≈ 51 µM) | – | – | Fc1cccc(Oc2nnnn2-c2ccccc2)c1
39 | 0.69 | ≤ 4.74 | 28.8 | 30.9 (≈ 138 µM) | – | – | Cc1cccn(Cc2cccc(C#N)c2)c1=O
40 | – | 7.6 | 17 | – | – | – | CC(C)Cc1ccc(-c2nc(-c3ccc(CN4CC(C(=O)O)C4)cc3)no2)cc1
